PMC6022228, “Introducing novel potent anticancer agents of 1H-benzo[f]chromene scaffolds, targeting c-Src kinase enzyme with MDA-MB-231 cell line anti-invasion effect” (Journal of Enzyme Inhibition and Medicinal Chemistry, 2018)
Converted amounts (≈) assume the structure as drawn. “And” between values parts separate entries of the source, which are not always exact repeats. Identical values can stand only once.

Experiments:
MCF-7 = assay: MTT viability assay, MCF-7 (breast cancer); type: cell-based; details: Homo sapiens, MCF7, 24 h incubation, mean ± standard error
Protocol: (§1) Compounds 4a–h and 6a–h were initially evaluated for in vitro antitumour activity against three different human cell lines: MCF-7, HCT-116, and HepG-2, and only the representative active cytotoxic compounds were further evaluated against the normal HFL-1 cell line. The in vitro cytotoxicity evaluation was performed at the Regional Center for Mycology & Biotechnology (RCMP), Al-Azhar University under different concentrations (50, 25, 12.5, 6.25, 3.125, 1.56, and 0 µg/mL); Vinblastine and Doxorubicin are used as reference cytotoxic compounds. The measurements of cell growth and the in vitro cytotoxicity evaluation were determined using viability assay as described in literature[31–33] and the result was cited in Table 1 and Figure 2.
(§2) The in vitro cytotoxic evaluation of the prepared compounds 4a–h and 6a–h was performed against MCF-7 (breast cancer), HCT-116 (human colon cancer), HepG-2 (liver cancer), and HFL-1(normal fibroblast lung) using the 3-(4,5-dimethylthiazol-2-yl)-2,5-diphenyl tetrazolium bromide (MTT) colorimetric assay as described in literature. […] The results were expressed as growth inhibitory concentration (IC50) values, which represent the compounds’ concentrations required to produce a 50% inhibition of the cell growth after 24 h of incubation, compared to the untreated controls as shown in Table 1 and Figure 2.

HCT-116 = assay: MTT viability assay, HCT-116 (human colon cancer); type: cell-based; details: 24 h incubation, mean ± standard error
Protocol: as §1, §2

HepG-2 = assay: MTT viability assay, HepG-2 (liver cancer); type: cell-based; details: Homo sapiens, HepG2, 24 h incubation, mean ± standard error
Protocol: as §1, §2

HFL-1 = assay: MTT viability assay, HFL-1 (normal fibroblast lung); type: cell-based; details: Homo sapiens, HFL1, 24 h incubation, normal cell line, mean ± standard error
Protocol: as §1, §2

c-Src kinase = target: T1, c-Src kinase (Homo sapiens, UniProt P12931); assay: c-Src kinase assay (HTScan Src Kinase Assay Kit); type: biochemical; details: GST-Src kinase, triplicate; read-out: Inhibition of c-Src kinase activity, IC50
T1 construct: purchased Cell Signaling Technology (Danvers, MA) 7776
Protocol: Streptavidin-coated plates were purchased from Pierce (Rockford, IL). […] The reaction mixture was incubated for 30 min at room temperature. The kinase reaction was stopped with the addition of 50 µL of 50 mM EDTA (pH 8.0). […] At the end of the incubation, the wells were washed three times with 200 µL of 0.05% Tween-20 in PBS buffer (PBS/T). After that to each well was added 100 µL of phosphotyrosine antibody (P-Tyr-100) (1:1000 dilution in PBS/T with 1% BSA) and the wells were incubated for another 60 min. After washing three times with 0.05% Tween-20 in PBS/T, the wells were incubated with 100 µL secondary anti-mouse IgG antibody, which was HRP-conjugated (1:500 dilution in PBS/T with 1% BSA) for next 30 min at room temperature. The wells were washed five times with 0.05% Tween-20 in PBS and then were incubated with 100 µL of 3,3′,5,5′-tetramethylbenzidine dihydrochloride substrate for 5 min. […] IC50 values of the compounds were calculated using ORIGIN 6.0 (Origin Lab Corporation, Northampton, MA) software. […] All the experiments were carried out in triplicate.

[1] = system: caspases 3/7 in MDA-MB-231 cells; assay: Caspase-Glo 3/7 activity assay; type: cell-based; details: Homo sapiens, 24 h treatment, 10 concentrations, read-out: Caspase-Glo 3/7 activity assay, MDA-MB-231 cell line, IC50
Protocol: The Caspase-Glo 3/7 activity assay was performed by Reaction Biology Corporation, One Great Valley Parkway, PA. Examined compounds 4c, 4e, 4h, 6d, and 6e were dissolved in DMSO as 20 mM stock and tested for their ability to Caspase-Glo 3/7 activity assay. […] Caspase-Glo 3/7 activity assay reagent was purchased from Promega (Madison, WI). MDA-MB-231 cell line was provided by ATCC. MDA-MB-231 cell line culture conditions: DMEM with 10% FBS. 100 µg/mL penicillin and 100 µg/mL streptomycin were added to the culture media. Cultures were maintained at 37 °C in a humidified atmosphere of 5% CO2 and 95% air.
Caspases are […] that promote apoptosis. Caspases are vital biochemical features of apoptotic signalling. […] To determine whether the cell growth inhibition in response to the benzochromene derivatives was mediated by apoptosis and was caspase dependent, MDA-MB-231 cells were treated with 10 different concentrations of the target compounds for 24 h.

T1 sequence (P12931 whole entry): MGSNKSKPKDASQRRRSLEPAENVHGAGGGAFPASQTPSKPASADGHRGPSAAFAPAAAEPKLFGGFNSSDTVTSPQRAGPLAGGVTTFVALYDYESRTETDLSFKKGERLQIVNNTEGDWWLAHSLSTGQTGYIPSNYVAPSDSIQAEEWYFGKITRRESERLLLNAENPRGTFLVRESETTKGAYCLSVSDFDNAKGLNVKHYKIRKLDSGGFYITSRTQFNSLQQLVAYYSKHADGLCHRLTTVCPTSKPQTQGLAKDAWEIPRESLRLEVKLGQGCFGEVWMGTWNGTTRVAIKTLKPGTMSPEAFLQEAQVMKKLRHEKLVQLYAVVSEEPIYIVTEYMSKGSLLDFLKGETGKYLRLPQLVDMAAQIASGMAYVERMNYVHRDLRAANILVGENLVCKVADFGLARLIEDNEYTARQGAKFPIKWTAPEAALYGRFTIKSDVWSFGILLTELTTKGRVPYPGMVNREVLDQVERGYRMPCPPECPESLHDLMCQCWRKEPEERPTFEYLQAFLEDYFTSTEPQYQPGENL

Compound	IC50 (MCF-7)	melting point	IC50 (HCT-116)	IC50 (HepG-2)	IC50 (c-Src kinase)	IC50 [1]	IC50 (HFL-1)
Cc1ccc(C2C(C#N)=C(N)Oc3ccc4cc(Br)ccc4c32)cc1 (centres unmarked) [Compound 4e, 3-Amino-8-bromo-1-(4-methylphenyl)-1H-benzo[f]chromene-2-carbonitrile]	2.5 ± 0.18 µg/mL (≈ 6.39 µM)	215 to 216 °C	0.7 ± 0.25 µg/mL (≈ 1.79 µM)	0.9 µg/mL (≈ 2.3 µM)	9 nM	19500 nM	22.4 ± 0.21 µg/mL (≈ 57.2 µM)
N#CC1=C(N)Oc2ccc3cc(Br)ccc3c2C1c1ccc(F)cc1 (centres unmarked) [Compound 4b, 3-Amino-8-bromo-1-(4-fluorophenyl)-1H-benzo[f]chromene-2-carbonitrile]	5.2 ± 0.03 µg/mL (≈ 13.2 µM)	242 to 243 °C	1 ± 0.12 µg/mL (≈ 2.53 µM)	0.8 ± 0.12 µg/mL (≈ 2.02 µM)			
COc1cccc2c1C(=O)c1c(O)c3c(c(O)c1C2=O)C[C@@](O)(C(=O)CO)C[C@@H]3O[C@H]1C[C@H](N)[C@H](O)[C@H](C)O1 [Doxorubicin, reference compound]	0.4 ± 0.01 µg/mL (≈ 0.736 µM)		0.5 ± 0.015 µg/mL (≈ 0.92 µM)	0.9 ± 0.04 µg/mL (≈ 1.66 µM)			
COc1ccc(C2C(C#N)=C(N)Oc3ccc4cc(Br)ccc4c32)c(OC)c1 (centres unmarked) [Compound 4g, 3-Amino-8-bromo-1-(2,4-dimethoxyphenyl)-1H-benzo[f]chromene-2-carbonitrile]	3.6 ± 0.01 µg/mL (≈ 8.23 µM)	220 to 221 °C	3.7 ± 0.15 µg/mL (≈ 8.46 µM)	2.8 ± 0.17 µg/mL (≈ 6.4 µM)			
CN[C@@H]1C[C@H]2O[C@@](C)([C@@H]1OC)n1c3ccccc3c3c4c(c5c6ccccc6n2c5c31)C(=O)NC4 [Staurosporine, staurosporine, reference compound]						68.5 nM	

Now from value to compound, other results behind:

IC50 (MCF-7)	melting point	IC50 (HCT-116)	IC50 (HepG-2)	IC50 (c-Src kinase)	IC50 [1]	Compound	IC50 (HFL-1)
16 ± 0.92 µg/mL (≈ 41.2 µM)	210 to 211 °C	10.9 ± 0.5 µg/mL (≈ 28.1 µM)	9 ± 0.3 µg/mL (≈ 23.2 µM)			COc1ccc(C2C(C#N)=C(N)Oc3ccc4cc(OC)ccc4c32)c(OC)c1 (centres unmarked) [Compound 6g, 3-Amino-1-(2,4-dimethoxyphenyl)-8-methoxy-1H-benzo[f]chromene-2-carbonitrile]	
3.1 ± 0.29 µg/mL (≈ 8.54 µM)	247 to 248 °C	2.5 ± 0.97 µg/mL (≈ 6.89 µM)	0.3 ± 0.08 µg/mL (≈ 0.827 µM)			COc1ccc2c3c(ccc2c1)OC(N)=C(C#N)C3c1ccc(Cl)cc1 (centres unmarked) [Compound 6c, 3-Amino-1-(4-chlorophenyl)-8-methoxy-1H-benzo[f]chromene-2-carbonitrile]	
2 ± 0.25 µg/mL (≈ 4.91 µM)	261 to 262 °C	0.9 ± 0.58 µg/mL (≈ 2.21 µM)	0.7 ± 0.13 µg/mL (≈ 1.72 µM)	214 to 329 nM and 329 nM	25600 nM	COc1ccc2c3c(ccc2c1)OC(N)=C(C#N)C3c1ccc(Br)cc1 (centres unmarked) [Compound 6d, 3-Amino-1-(4-bromophenyl)-8-methoxy-1H-benzo[f]chromene-2-carbonitrile]	35.5 ± 0.22 µg/mL (≈ 87.2 µM)
4.4 ± 0.05 µg/mL (≈ 12.7 µM)	256 to 257 °C	4.9 ± 0.01 µg/mL (≈ 14.1 µM)	0.5 ± 0.01 µg/mL (≈ 1.44 µM)			COc1ccc2c3c(ccc2c1)OC(N)=C(C#N)C3c1ccc(F)cc1 (centres unmarked) [Compound 6b, 3-Amino-1-(4-flourophenyl)-8-methoxy-1H-benzo[f]chromene-2-carbonitrile]	
